Test results: patent US20220332782A1, “Combined Artificial Cell Death/Reporter System Polypeptide for Chimeric Antigen Receptor Cell and Uses Thereof” (Century Therapeutics, Inc., priority 2021, published 2022)

Columns and labels:
Format in all cases: cell-based
untransfected iPSCs = test: ganciclovir treatment of untransfected iPSCs (WT control), cell confluency by imaging; conditions: 1 μM ganciclovir
Description: (§1) The ability to induce cell death in cells expressing the HSV-TK-PSMA fusion or HSV-TK alone was next tested. […] The resulting plasmid (p1474; shown in FIG. 4) was sequenced and grown up for purification using the Qiagen maxi-prep kit. Next, iPSCs were transfected with the p1499 or p1474 plasmids. Transfected and untransfected cells were plated into 6 well dishes (2×10^5 cells/well) and treated with and without 1 μM ganciclovir and imaged at 24 and 48 hours to monitor cell growth. […] It will be appreciated by those skilled in the art that changes could be made to the embodiments described above without departing from the broad inventive concept thereof. It is understood, therefore, that this invention is not limited to the particular embodiments disclosed, but it is intended to cover modifications within the spirit and scope of the present invention as defined by the present description.

[1] = test system: HSV-TK (A168H)-T2A-PSMA engineered iPSCs; test: ganciclovir killing of HSV-TK (A168H)-T2A-PSMA engineered iPSCs, visual inspection; conditions: 1 uM ganciclovir, 60 hours
Description: (§2) FIGS. 6A-6B show results from cells transfected with a HSV-TK […]-T2A-PSMA transgene.

[2] = test system: iPSCs expressing HSV-TK alone; test: ganciclovir killing of iPSCs transfected with HSV-TK alone (p1474), cell confluency by imaging; conditions: 1 μM ganciclovir, 24 and 48 hours
Description: as §1

[3] = test system: wild-type (WT; un-engineered) iPSCs; test: ganciclovir treatment of wild-type (un-engineered) iPSCs, visual inspection; conditions: increasing concentrations of ganciclovir, 60 hours
Description: as §2

[4] = test system: iPSCs expressing the HSV-TK-PSMA fusion; test: ganciclovir killing of iPSCs transfected with HSV-TK-PSMA fusion (p1499), cell confluency by imaging; conditions: 1 μM ganciclovir
Description: as §1

Nc1nc(O)c2ncn(COC(CO)CO)c2n1 [ganciclovir]
effect on cell growth (untransfected iPSCs; 24 hours and 48 hours): no effect | cell confluency (untransfected iPSCs; 48 hours, WT cells): 73% | killing [1]: ~100% | confluency compared with untreated cells [2]: reduced confluency | effect on un-engineered cells [3]: unaffected | confluency compared with untreated cells ([4]; 24 and 48 hours): reduced confluency | cell confluency ([4]; 48 hours, iPSCs expressing HSV-TK-PSMA): 6%
